This is an account of results in US20140120190A1, “METHODS OF PREPARING PRICKLY-ASH PEEL EXTRACTS AND COSMETIC COMPOSITIONS INCORPORATING PRICKLY-ASH PEEL EXTRACTS” (priority 2012, published 2014).

For one assay, the system named is NF-κB gene. The assay is described as follows: Blocking of NF-κB gene expression.
A further assay concerns skin. The assay is described as follows: Effects on skin at the tissue level (collagen, elastin, hair follicles, senile plaques).
The next assay in a line: Antioxidant effect. An excerpt: At the same time, the molecular weight of gx-50 is so small that gx-50 is more easily absorbed via the skin.

With `COc1ccc(CCNC(=O)/C=C/c2ccccc2)cc1OC` [gx-50], the “expression of the NF-κB gene” value in the assay on NF-κB gene is recorded as “effectively blocks the expression of the NF-κB gene”. In the assay with skin, the “loss of collagen and elastin in skin” value is “helps prevent the loss of collagen and elastin in skin”. In addition, the antioxidant effect result in “Antioxidant effect” is reported as “possessing an antioxidant effect”.
